Experimental findings from US20250205362A1, “LIPID NANOPARTICLES” (NATIONAL UNIVERSITY CORPORATION HOKKAIDO UNIVERSITY, priority 2022, published 2025) are described below.

Data set [1] can be described thus: Encapsulation rate of lipid nanoparticles (Ribogreen). It counts as physicochemical. As for the experimental part: The encapsulation rate of the lipid nanoparticles was calculated by measuring the amount of encapsulated nucleic acid (the amount of ssODN in the case of RNP-ssODN) using an RNA intercalator Ribogreen (manufactured by Life Technologies).
Data set [2] in a line: Average particle diameter, PdI and zeta potential of lipid nanoparticles (dynamic light scattering). It counts as physicochemical. Here is the method: The mean particle diameter (number average value), ζ-mean particle diameter, and polydispersity index (PdI) of the lipid nanoparticles in PBS(−) (pH 7.4), as well as the zeta potential in 10 mM HEPES buffer (pH 7.4), were measured using an analyzing device, Zetasizer Nano ZS ZEN3600 (Malvern), which utilizes dynamic light scattering.

The next data set relates to TTR gene. Briefly: Measurement of TTR-KO activity (serum TTR protein, ELISA). It counts as in vivo, mouse. To be noted: for KO (%) 1st test / KO (%) 2nd test: TTR-KO activity in mice, TTR-RNP-ssODN-loaded LNP CL4H6/DSPC/cholesterol/PEG-DMG 50/10/40/3.5 mol%, sgTTR-G211 (TTR_3) or sgTTR-G269 (TTR_4); for serum TTR (5′ versus 3′ mismatch site): FIG. 8, sgTTR-G211, 7 days after administration. Here is the method:
Lipid nanoparticles encapsulating Cas9/sgTTR-RNP (Cas9/sgTTR-RNP-loaded lipid nanoparticles) were intravenously injected to BALB/c mice (female, 4 weeks old) at the indicated doses. One week after intravenous injection, the mice were euthanized, blood was collected, and serum was isolated by centrifugation. The TTR protein concentration in the serum was determined using a commercially available ELISA kit (Prealbumin ELISA Kit (mouse), Aviva Systems Biology) according to the manufacturer's protocol. The serum TTR protein concentration of untreated mice was taken as 100%, and the relative value (%) of the serum TTR protein concentration of mice administered with each lipid nanoparticle was taken as the knockout activity (TTR-KO activity) of the lipid nanoparticle.
On the technique in general: An ELISA detects its analyte on a solid surface through an enzyme-linked reagent.

Where [3] appears, read: Fluc mRNA-loaded LNP, CL4F11-e-3/neutral lipid (DSPC or DOPE)/cholesterol/PEG-DMG 50/10/40/0.75 mol%.
Setting [4] is: Fluc mRNA-loaded LNP, comparison CL4F11-ζ-2, SM, ALC, MC3, Table 21.
Where [5] appears, read: TTR-RNP-ssODN-loaded LNP, comparison CL4F11-ζ-2, SM, ALC, MC3, Table 20.
Where [6] appears, read: Fluc mRNA-loaded LNP, cationic lipid/DSPC/cholesterol/PEG-DMG 50/10/40/1.5 mol%, Table 5.
The mark [7] stands for this setting: TTR-RNP-ssODN-loaded LNP, sgTTR-G211, CL4H6/DSPC/cholesterol/PEG-DMG 50/10/40/3.5 mol%, Table 13.

Residue numbers refer to the chain shown, from its start.

Consider `CCCCCCCCCCCCCCCCCC(=O)OC[C@H](COP(=O)([O-])OCC[N+](C)(C)C)OC(=O)CCCCCCCCCCCCCCCCC` [DSPC, 1,2-distearoyl-sn-glycero-3-phosphocholine], for which the Encapsulation rate in data set [1] (setting [3]) turned out to be 85.3%. In data set [2] (setting [3]), this molecule had a Number-average particle diameter of 54.7 nm, a PdI of 0.275, a ζ-average of 104.7 nm and a ζ-potential of −2.41 mV.
In the case of `CCCCCCCCC(CCCCCC)C(=O)OCCCCCCN(CCCCO)CCCCCCOC(=O)C(CCCCCC)CCCCCCCC` (stereo not drawn) [ALC, ALC-0315, reference compound], the Encapsulation rate in data set [1] (setting [4]) came to 87.4%. In addition, the Encapsulation rate in data set [1] (setting [5]) came out at 73.9%. Also, in data set [2] (setting [4]), the Number-average particle diameter is 44.7 nm, the PdI is reported as 0.085, the ζ-average is recorded as 61.9 nm and the ζ-potential was −1.75 mV. Further, in data set [2] (setting [5]), the Number-average particle diameter was 50.7 nm, the PdI is 0.138, the ζ-average came out at 78.8 nm and the ζ-potential is 0.51 mV.
The molecule “7-(4-(dipropylamino)butyl)-7-hydroxytridecane-1,13-diylbis(3-butylheptanoate) [CL4F7-b-4]” had an Encapsulation rate in data set [1] (setting [6]) of 77.5%. In data set [2] (setting [6]), this molecule had a Number-average particle diameter of 94.4 nm, a PdI of 0.267, a ζ-average of 237.6 nm and a ζ-potential of −3.06 mV.
On to `CCCCC(CC)CCCCCC(=O)OCCCCCCC(O)(CCCCCCOC(=O)CCCCCC(CC)CCCC)CCCCN(CCC)CCC` (stereo not drawn) [CL4F11-ζ-2, 7-(4-(dipropylamino)butyl)-7-hydroxytridecane-1,13-diylbis(7-ethylundecanoate)], for which the “suppression of TTR gene expression” value in the data set with TTR gene (FIG. 15, 2.0 mg RNP/kg body weight, single administration, 7 days) stood at 98%.
“7-(4-(dipropylamino)butyl)-7-hydroxy-13-((3-propylhexanoyl)oxy)tridecyl 3-ethylheptanoic acid [CL4F6-b-3]” gave an Encapsulation rate in data set [1] (setting [6]) of 88.9%. In addition, in data set [2] (setting [6]), the Number-average particle diameter turned out to be 89.3 nm, the PdI worked out at 0.144, the ζ-average is 141.4 nm and the ζ-potential was −3.44 mV.
In the data set on TTR gene (FIG. 5, TTR-RNP-ssODN-loaded LNP, mouse serum 7 days after administration), `CCCCCC(CCC)CCCCC(=O)OCCCCCCC(O)(CCCCCCOC(=O)CCCCC(CCC)CCCCC)CCCCN(CCC)CCC` (stereo not drawn) [CL4F11-e-3, 7-(4-(dipropylamino)butyl)-7-hydroxytridecane-1,13-diylbis(6-propylundecanoate)] returned a knockout of at least 90%.
Take `CCCCCCCCCCCOC(=O)CCCCCN(CCO)CCCCCCCC(=O)OC(CCCCCCCC)CCCCCCCC` [SM, SM-102, reference compound]: the Encapsulation rate in data set [1] (setting [4]) is reported as 88.4%. Moreover, in data set [1] (setting [5]), the Encapsulation rate came out at 78.3%. For the same molecule, in data set [2] (setting [4]), the Number-average particle diameter turned out to be 52.4 nm, the PdI was found to be 0.131, the ζ-average came to 76.7 nm and the ζ-potential was 0.24 mV. In data set [2] (setting [5]), the Number-average particle diameter was 64.6 nm, the PdI is 0.137, the ζ-average was determined as 93.6 nm and the ζ-potential amounted to 1.43 mV.

B1: ssODN-TTR_3-100%: ssODN pairing with sgTTR-G211, 100% matched; SEQ ID NO 3 (nucleic acid)
DNA: AAAAAAAAAAAAAAAAAAAAAAAAAAAAAAAAAAAAAAAAAAAAAAAAAAAAAAAATGCTGTAGACGTGGCTGTAAAAAAAAAAAAAAAAAAAAAAAAAAAAAAAAAAAAAAAAAAAAAAAAAAAAAAAAAA
Take B1: in the data set with TTR gene, the “KO (%) 1st test” value is 20.0% and the “KO (%) 2nd test” value stood at 28.6%.

B2: ssODN-TTR_4-50%: ssODN pairing with sgTTR-G269, 50% matched; SEQ ID NO 12 (nucleic acid)
DNA: B1 DNA
For the molecule B2, in the data set on TTR gene, the “KO (%) 1st test” value worked out at 15.4% and the “KO (%) 2nd test” value is reported as 33.8%.

B3: ssODN-TTR_4-40%: ssODN pairing with sgTTR-G269, 40% matched; SEQ ID NO 13 (nucleic acid)
DNA: AAAAAAAAAAAAAAAAAAAAAAAAAAAAAAAAAAAAAAAAAAAAAAAAAAAAAAAAAAAAAATGTAGGAGATAAAAAAAAAAAAAAAAAAAAAAAAAAAAAAAAAAAAAAAAAAAAAAAAAAAAAAAAAAAA
Take B3: in the data set with TTR gene, the “KO (%) 1st test” value was found to be 19.9% and the “KO (%) 2nd test” value was found to be 29.6%. Moreover, the “TTR-KO activity (ranking among ssODNs)” value in the data set on TTR gene (Table 10, CL4H6 LNP, per sgRNA) is reported as “highest TTR-KO activity”.

B4: ssODN-TTR_3-10° C.-5′: ssODN pairing with sgTTR-G211, mismatch on one side; SEQ ID NO 17 (nucleic acid)
DNA: B3 DNA with A57T, A58G, A59C, G64A, G67A, G68A, G70A, T72A, A75T, A76T
On to B4, for which the Encapsulation rate in data set [1] (setting [7]) is given as 59.0%. In data set [2] (setting [7]), this molecule yielded a Number-average particle diameter of 82.4 nm, a PdI of 0.146, a ζ-average of 141.0 nm and a ζ-potential of 3.98 mV. The “serum TTR (5′ versus 3′ mismatch site)” value in the data set on TTR gene (CL4H6 LNP) is listed as “about the same”.

B5: ssODN-TTR_4-80%: ssODN pairing with sgTTR-G269, 80% matched; SEQ ID NO 10 (nucleic acid)
DNA: B3 DNA with A59G, A60T, A61G, A62C, A71T, T72A, A73T, A74G
In the case of B5, the “KO (%) 2nd test” value in the data set on TTR gene is 21.0%.

B6: ssODN-TTR_4-60%: ssODN pairing with sgTTR-G269, 60% matched; SEQ ID NO 11 (nucleic acid)
DNA: B3 DNA with A61G, A62C, A71T, T72A
As for B6, in the data set with TTR gene, the “KO (%) 1st test” value is −0.9% and the “KO (%) 2nd test” value is 30.7%.

B7: ssODN-TTR_4-30%: ssODN pairing with sgTTR-G269, 30% matched; SEQ ID NO 14 (nucleic acid)
DNA: B3 DNA with T63A, G70A
Regarding B7, in the data set with TTR gene, the “KO (%) 1st test” value came out at 16.4% and the “KO (%) 2nd test” value was 14.4%.

B8: ssODN-TTR_3-30%: ssODN pairing with sgTTR-G211, 30% matched; SEQ ID NO 8 (nucleic acid)
DNA: B3 DNA with T65A, A66C, G68T, A69G, G70A, T72A, A75T, A76T
Take B8: the “serum TTR activity / gene knockout activity” value in the data set with TTR gene (FIG. 23, CL4H6 LNP prepared at 4° C., 2.0 mg RNP/kg, 7 days) is reported as “low serum TTR activity, exhibiting sufficient gene knockout activity”. Also, in the data set on TTR gene, the “KO (%) 1st test” value stood at 17.4% and the “KO (%) 2nd test” value worked out at 31.6%.

B9: ssODN-TTR_3-10° C.-3′: ssODN pairing with sgTTR-G211, mismatch on one side; SEQ ID NO 16 (nucleic acid)
DNA: B3 DNA with G64A, G67A, G68A, G70A, T72A, A73G, A74T
For B9, in data set [1] (setting [7]), the Encapsulation rate is on record as 62.9%. In data set [2] (setting [7]), this molecule gave a Number-average particle diameter of 95.3 nm, a PdI of 0.269, a ζ-average of 172.6 nm and a ζ-potential of 5.20 mV. In the data set with TTR gene (CL4H6 LNP), the “serum TTR (5′ versus 3′ mismatch site)” value is recorded as “about the same”.

B10: ssODN-TTR_3-60%: ssODN pairing with sgTTR-G211, 60% matched; SEQ ID NO 5 (nucleic acid)
DNA: B1 DNA with T57A, G58A, C59A, T60A, G73A, T74A, A75T, A76T
As to B10, in the data set on TTR gene, the “KO (%) 1st test” value worked out at 26.4% and the “KO (%) 2nd test” value is listed as 35.4%.
